How the values were obtained:
[1] = system: HEK293 cells; experiment: Ubiquitin signal on Western blot of whole lysates (protein degradation); format: cell-based; settings: treated two hours
Description: (§1) To show the specificity of this technique for the detection of newly synthesized proteins, HEK293 cells were incubated for 2 hrs with AHA in the presence or absence of a protein synthesis inhibitor (Anisomycin or Cycloheximide). After incubation, cells were lysed and subjected to [3+2]cycloaddition with the biotin-bearing alkyne-linker Biotin-PEO-Propargylamide, followed by Western blot analysis with an anti-Biotin-antibody. […] The potential for increased protein degradation was measured by examining the ubiquitin signal strength on a Western blot from whole lysates of HEK293 cells, which were treated with AHA, methionine or incubation buffer for two hours.

[2] = system: dissociated hippocampal neurons; experiment: AHA toxicity by whole neuron morphology (GFP reporter); format: cell-based, rat; settings: 2 hrs incubation
Description: Dissociated hippocampal neuron cultures were prepared from newborn rat pups (PO) as outlined in (Banker and Goslin, 1990), Neurons were plated at a density of 15,000-45,000 cells/cm^2 onto poly-D-lysine coated cell culture dishes or onto poly-D-lysine and growth factor reduced matrigel (BD Biosciences) coated polycarbonate nets with a pore size of 3 (Transwell, Corning) for the preparation of isolated dendrites. The cultures were maintained and allowed to mature in growth medium (Neurobasal-A supplemented with B27 and GlutaMAX-1) for 14 to 21 days before use. The use of this growth medium suppressed glial proliferation, which was even more reduced by application of Ara-C (5 μM final concentration). To supplement glial neurotrophic factors, 25% conditioned growth media from glial and cortical cultures were added to the growth media. Isolated dendrites were obtained from Transwell cultures by removing the cell body layer with a sterile cell lifter after change to HBS. For immunolabeling after AHA-incorporation and cycloaddition with BiotinCyclooctyne, neurons are fixed at room temperature with 4% paraformaldehyde for 20 minutes. […] Images are recorded through standard emission filters at contrast settings for which the crossover between the two channels is negligible. […]

[3] = system: E. coli and mammalian cells; experiment: Protein degradation upon introduction of AHA; format: cell-based; settings: studies in E. coli and experiments in mammalian cells
[4] = system: HEK293 cells; experiment: Detection of newly synthesized proteins: AHA labelling, [3+2]cycloaddition with Biotin-PEO-Propargylamide, anti-Biotin Western blot; format: cell-based; settings: HEK293 cells incubated 2 hrs with AHA in the presence of the protein synthesis inhibitor
Description: In embodiments using [3+2] Cycloaddition, the following exemplary protocol may be used. Briefly, AHA, Biotin-PEO-Propargylamide and the triazole ligand were prepared as described previously. The tandem featured alkyne tag was synthesized by GenScript Corporation. Biotin-Cyclooctyne is a generous gift from Carolyn Bertozzi. DIO-L-leucine was purchased from Sigma. In all culture experiments, growth medium was removed from HEK293 cells, whole neuronal cultures or isolated dendrites were replaced with HEPES-buffered solution (HBS) with 2.86 mM AHA, and 2.86 mM methionine for control experiments. After incubation at 37° C., 5% CO2, cells were washed with PBS-MC (1 mMMgCl2, 0.1 mM CaCl2 in PBS) to remove excess amounts of AHA and methionine. SNS and other biochemical fractions are incubated with 2.86 mM AHA or 2.86 mM methionine under agitation at 37° C. and washed in StimBuffer after incubation. […]
as §1, with “Cycloheximide).” for “Cycloheximide). After incubation, cells were lysed and subjected to [3+2]cycloaddition with the biotin-bearing alkyne-linker Biotin-PEO-Propargylamide, followed by Western blot analysis with an anti-Biotin-antibody.”

Compound	ubiquitination compared to buffer or methionine controls [1]	gross morphology of neurons compared to methionine controls ([2]; 12 DIV neurons expressing GFP reporter)	toxicity to neurons ([2]; primary/dissociated hippocampal neuronal cultures, equimolar AHA or methionine control)	increased protein degradation [3]	anti-Biotin Western blot signal of AHA-labelled newly synthesized proteins [4]
[N-]=[N+]=NCC[C@H](N)C(=O)O [AHA, azidohomoalanine]	No increased ubiquitination	no change in the gross morphology	not toxic	no evidence of increased protein degradation	–
C[C@@H]1C[C@@H]([C@H](O)CC2CC(=O)NC(=O)C2)C(=O)[C@@H](C)C1 [Cycloheximide]	–	–	–	–	No signal was detected
COc1ccc(C[C@H]2NC[C@H](O)[C@H]2OC(C)=O)cc1 [Anisomycin]	–	–	–	–	No signal was detected
